From US20110166206A1, “UBIQUILIN REGULATION OF PRESENILIN ENDOPROTEOLYSIS, AND SUPPRESSION OF POLYGLUTAMINE-INDUCED TOXICITY IN CELLS” (UNIVERSITY OF MARYLAND BIOTECHNOLOGY INSTITUTE, priority 2005, published 2011)

What was measured:
GFP-HttQ74-3 cell line = type: cell-based; conditions: 100 uM, 5 hours exposure
From the text: FIG. 11. […] The 28Q-2 and 74Q-3 were used in most of our studies. The asterisk corresponds to a non-specific band that is detected by the GFP antibody. • B. Representative fluorescent images of GFP-HttPolyQ(28)-2 and GFP-HttPolyQ(74)-3 stable cell lines. Note that GFP fluorescence is located in both the cytoplasm and the nucleus, but that compact foci are only seen in the GFP-HttPolyQ(74)-3 cells. • C. Cells expressing expanded polyglutamine proteins are more sensitive to H2O2. The GFP-HftPolyQ(28)-2 and GFP-HttPolyQ(74)-3 stable cell lines were exposed to 200 μM concentration of H2O2 and after 5 hr, the cells were stained with both Hoechest 33342 and PI. […] Percentages of cell death calculated by determining the ratio of PI-positively stained cells to that of Hoechst-stained cells. […] Cell death was quantified as described in D above. • H. Representative images showing that ubiquilin-1 overexpression protects GFP-HttPolyQ(74)-3 expressing cells against serum withdrawal-induced cell death, in a dose-dependent manner. […] Bottom panel: Quantification of the spot intensity determined in three independent experiments.
Cell death was monitored either through examination of the nuclear morphology observed after Hoechst 33342 (1 μg/ml) staining, or through detecting the membrane selective permeability following 3 μM of propidium iodide (PI) staining. […]

Pen-2 = assay: UBQLN overexpression in PS inducible cells, Pen-2 immunoblot; type: cell-based; conditions: induced lysates
From the text: (§1) (A) Examination of Nicastrin, Aph-1 and Pen-2 levels in PS1 cells lines that were either not induced (lanes 1 and 3) or induced with PonA (lanes 2 and 4) and either left untransfected (lanes 1 and 2) or transfected with UBQLN1 cDNA (lanes 3 and 4). Equivalent amounts of protein lysates were separated by 10% SDS-PAGE and immunoblotted with the appropriate antibodies. The filter was then reprobed an anti-actin to ensure equal loading. UBQLN overexpression decreases Pen-2 and Nicastrin levels.
(C) Densitometric analysis was used to quantify the extent of reduction. Each experiment was repeated more than three times.
(§2) Preparation of protein lysates, SDS-PAGE and immunoblotting of proteins were described previously. Primary antibodies used were rabbit anti-PS2 loop and rabbit anti-PS2 NH,-terminus, both raised to GST-PS2 fusion proteins; rabbit anti-ubiquilin [43] which reacts with UBQLN1 and UBQLN2 polypeptides; rat anti-PS1 NH2,-terminus (Chemicon International, Temecula, Calif.); rabbit anti-PS1 loop raised to GST-PS1 fusion proteins; goat anti-p27 and goat anti-actin (Santa Cruz Biotechnology, Santa Cruz, Calif.); mouse monoclonal anti-tubulin (Sigma-Aldrich, St. Louis, Mo.); rabbit anti-nicastrin (Abeam, Cambridge, Mass.), rabbit anti-Pen-2 (Zymed, San Francisco, Calif.); and rabbit anti-Aph-la (Covance, Berkeley, Calif.). […]

Aph-1 = assay: UBQLN overexpression in PS inducible cells, Aph-1 immunoblot; type: cell-based; conditions: UBQLN overexpressed
From the text: as §1, §2

PS2 NTF [1] = assay: Cycloheximide time course of PS2 fragment production in PS2 inducible cells with or without UBQLN1 transfection; type: cell-based, human; conditions: PS2 inducible cell lysates, densitometry
Protocol: (A) Time course experiment using ponA-induced PS2 cell line cultures transfected with or without UBQLN1 expression plasmids were treated with […] cycloheximide for 0-6 hours. Equal amounts of protein lysate were separated by 8.5% SDS-PAGE and subsequently immunoblotted with anti-UBQLN antibody. Transfected cells reveal a 4-fold increase in UBQLN1 levels. Next, the protein lysates were immunoblotted using anti-PS2 NH,-terminal antibody to detect FL and NTF PS2 levels, as indicated. Note both FL PS2 turnover and NTF production levels in transfected versus untransfected cell lysates.
(B) Same experiment as (A) except FL PS expression was not induced using PonA.
(C) Graphs showing relative levels of PS2 polypeptides in PS2 inducible cell lysates after densitometric analysis of the immunoreactive bands shown in panels A and B. The levels were calculated by normalization of the signals relative to that in Lane 1. The Microsoft Excel program was used to produce a best-fit line for each graph. […] However, this is completely opposite of NTF levels. UBQLN not only decreases NTF levels at every time-point in the experiment, but it also slows the rate of NTF production, as determined by measuring the slope of each line.
HeLa and HEK293 cells were grown in DMEM supplemented with 10% FBS. PS1 and S2 inducible cell lines were generated by transfection of the pERV-expressing HEK293 cell line (Stratgene, IaIolla, Calif.) with FL human PS2 cDNA under the control of ponasteroneA (PonA)-inducible cassette in plasmid pEGSH (Stratagene). Stable integration of the pEGSH plasmid was achieved by selection for hygromycin resistance. PS expression was induced by adding PonA (final cont. 10 pM) to the medium. For proteasome inhibition studies, cultures were treated with 40 uM MG132 (Calbiochem, San Diego, Calif.) for time periods as indicated. […]
To this end, protein synthesis was inhibited using cyclohexamide (CHX) and PS fragment production was monitored over a six-hour time period in UBQLN transfected and untransfected lysates that were either induced or uninduced for PS expression. […]

PS2 NTF [2] = assay: Pulse-chase of PS2 NTF turnover with or without UBQLN overexpression; type: cell-based; conditions: 35 hour chase, with vs without UBQLN overexpression
Nicastrin = assay: UBQLN overexpression in PS inducible cells, Nicastrin immunoblot; type: cell-based; conditions: UBQLN overexpressed
From the text: as §1, §2

## OO [H2O2]
GFP-HttQ74-3 cell line
  cell death: approximately 30%

## UBQLN: ubiquilin protein overexpressed from cDNA plasmids, isoform not specified at the place
Pen-2
  reduction of Pen-2 levels: 2 fold
Aph-1
  Aph-1 levels: remain steady
PS2 NTF [1]
  FL PS2 levels: increases FL PS2 levels dramatically
PS2 NTF [2]
  turnover of PS2 NTF: no significant difference
Nicastrin
  levels of mature Nicastrin: decreased
